The values that follow come from BindingDB's records for doi:10.1021/acs.jmedchem.9b00963 (Hong Kong Polytechnic University, 2019).

The nature of data set [1]: Inhibition of P-gp (unknown origin) expressed in human LCC6MDR cells assessed as reversal of paclitaxel resistance after 5 days by MTS/PMS assay.
Data set [2] in a line: Inhibition of BCRP (unknown origin) transfected in human HEK293/R2 cells assessed as potentiation of topotecan-induced cytotoxicity measured as topotecan IC50 at 1 uM (Rvb = 531.5 +/- 180 nM).
Data set [3] can be described thus: Inhibition of BCRP (unknown origin) transfected in HEK293/R2 cells assessed as reversal of topotecan resistance after 5 days by MTS/PMS assay.
A short description of data set [4]: Inhibition of BCRP in human MCF7/MX100 cells assessed as reversal of topotecan resistance after 5 days by MTS/PMS assay.
The nature of data set [5]: Inhibition of P-gp (unknown origin) expressed in human LCC6MDR cells assessed as potentiation of mitoxantrone-induced cytotoxicity after 5 days by MTS/PMS assay.
A short description of data set [6]: Inhibition of BCRP (unknown origin) expressed in human HEK293/R2 cells assessed as potentiation of mitoxantrone-induced cytotoxicity after 5 days by MTS/PMS assay.
A short description of data set [7]: Inhibition of MDR in human LCC6MDR cells assessed as reduction in cell viability after 5 days by MTS/PMS assay.
Data set [8] is described as follows: Inhibition of MRP1 in human 2008/MRP1 cells assessed as reduction in cell viability after 5 days by MTS/PMS assay.

Take `COC(=O)c1cccc(COc2c(-c3ccc(OCCOCCn4cc(CN(Cc5ccccc5)Cc5cn(CCOCCOc6ccc(-c7oc8ccccc8c(=O)c7OCc7cccc(C(=O)OC)c7)cc6)nn5)nn4)cc3)oc3ccccc3c2=O)c1`: the EC50 (commonly the concentration at which the effect is half-maximal) in data set [1] was above 1000 nM; in data set [3] it was 5.3 nM; in data set [4], 3.3 nM. Also, the IC50 – broadly, the concentration that gives 50% inhibition – in data set [2] was 15 nM.
Turning to `COc1ccc2c3c([nH]c2c1)[C@H](CC(C)C)N1C(=O)[C@H](CCC(=O)OC(C)(C)C)NC(=O)[C@@H]1C3` [Ko143], the EC50 amounted to 1060 nM in data set [1] and 943 nM in data set [5].
Take `COC(=O)c1cccc(COc2c(-c3ccc(OCCOCCn4cc(COCc5cn(CCOCCOc6ccc(-c7oc8ccccc8c(=O)c7OCc7cccc(C(=O)OC)c7)cc6)nn5)nn4)cc3)oc3ccccc3c2=O)c1`: the 50% effective concentration (EC50) was above 1000 nM in data set [1], 4.2 nM in data set [3] and 2.1 nM in data set [4]. Also, the IC50 in data set [2] is 20 nM.
`COC(=O)c1cccc(COc2c(-c3ccc(OCCOCCn4cc(-c5cccc(-c6cn(CCOCCOc7ccc(-c8oc9ccccc9c(=O)c8OCc8cccc(C(=O)OC)c8)cc7)nn6)c5)nn4)cc3)oc3ccccc3c2=O)c1`: the EC50 in data set [1] was above 1000 nM; in data set [5], above 2000 nM; in data set [3] it was 2.2 nM; in data set [6], 11 nM; in data set [4] it was 1.1 nM. Besides, in data set [2], the IC50 was found to be 25 nM.
For the compound `COC(=O)c1cccc(COc2c(-c3ccc(OCCOCCn4cc(CCCc5cn(CCOCCOc6ccc(-c7oc8ccccc8c(=O)c7OCc7cccc(C(=O)OC)c7)cc6)nn5)nn4)cc3)oc3ccccc3c2=O)c1`, the EC50 in data set [1] is above 1000 nM; in data set [3], 6.1 nM; in data set [4] it was 2.4 nM. The IC50 in data set [2] amounted to 19 nM.
Regarding `O=C1c2c(O)ccc(O)c2C(=O)c2c(NCCNCCO)ccc(NCCNCCO)c21` [SMR000058480], the concentration for half-maximal inhibition (IC50) in data set [7] is 1500 nM; in data set [8], 28 nM.
On to `Cc1ccc2oc(-c3ccc(OCCCCc4cn(CCOCCOCCOc5ccc(-c6oc7ccccc7c(=O)c6OCc6ccccc6)cc5)nn4)cc3)cc(=O)c2c1`, for which the EC50 in data set [1] amounted to 422 nM; in data set [3] it was 24 nM; in data set [4] it was 20 nM.
The corresponding values for `COC(=O)c1cccc(COc2c(-c3ccc(OCCOCCOCCn4cc(CN(Cc5ccccc5)Cc5cn(CCOCCOCCOc6ccc(-c7oc8ccccc8c(=O)c7OCc7cccc(C(=O)OC)c7)cc6)nn5)nn4)cc3)oc3ccccc3c2=O)c1` are above 1000 nM, 3.3 nM and 4.3 nM.
The corresponding values for `COC(=O)c1cccc(COc2c(-c3ccc(OCCOCCn4cc(CN5CCCN(Cc6cn(CCOCCOc7ccc(-c8oc9ccccc9c(=O)c8OCc8cccc(C(=O)OC)c8)cc7)nn6)CC5)nn4)cc3)oc3ccccc3c2=O)c1` are 573 nM, 108 nM and 55 nM.
Regarding `O=c1cc(-c2ccc(OCCOCCn3cc(CCCCOc4ccc5c(=O)cc(-c6ccccc6)oc5c4)nn3)cc2)oc2ccccc12`, the values for the EC50 in data set [1], in data set [3] and in data set [4] were 321 nM, 52 nM and 25 nM, respectively.
On the same counts, the results for `Cc1ccc2oc(-c3ccc(OCCCCc4cn(CCOCCOCCOc5ccc(-c6cc(=O)c7cc(F)ccc7o6)cc5)nn4)cc3)cc(=O)c2c1` are 747 nM, 58 nM and 320 nM.
Consider `Cc1ccc2oc(-c3ccc(OCCOCCOCCn4cc(CCCCOc5ccc6c(=O)cc(-c7ccccc7)oc6c5)nn4)cc3)cc(=O)c2c1`, for which the EC50 is 198 nM in data set [1], 33 nM in data set [3] and 46 nM in data set [4].
The corresponding values for `O=c1cc(-c2ccc(OCCOCCOCCn3cc(CCCOc4ccc5c(=O)cc(-c6ccccc6)oc5c4)nn3)cc2)oc2ccccc12` are 384 nM, 52 nM and 203 nM.
On the same counts, the results for `O=c1cc(-c2ccc(OCCOCCOCCn3cc(CCCOc4ccc(-c5cc(=O)c6ccc(F)cc6o5)cc4)nn3)cc2)oc2ccccc12` are 255 nM, 24 nM and 7.4 nM.
As for `O=c1cc(-c2ccc(OCCCc3cn(CCOCCOCCOc4ccc(-c5cc(=O)c6cc(F)ccc6o5)cc4)nn3)cc2)oc2cc(F)ccc12`, the EC50 in data set [1] was 161 nM; in data set [3], 3.1 nM; in data set [4], 4 nM.
On the same counts, the results for `Cc1ccc2oc(-c3ccc(OCCOCCOCCOCCOCCOc4ccc(-c5cc(=O)c6cc(C)ccc6o5)cc4)cc3)cc(=O)c2c1` [1,16-Bis[40-((6-methyl)-4H-chromen-4-on-2-yl)phenyl]-1,4,7,10,13,16-hexaoxahexadecane] are 264 nM, 65 nM and 63 nM.
The corresponding values for `O=c1cc(-c2ccc(OCCOCCn3cc(CCCOc4ccc5c(=O)cc(-c6ccccc6)oc5c4)nn3)cc2)oc2ccccc12` are 300 nM, 67 nM and 30 nM.
Consider `O=c1cc(-c2ccccc2)oc2cc(OCCOCc3cn(CCOCCOCCOc4ccc(-c5cc(=O)c6cc(F)ccc6o5)cc4)nn3)ccc12`, for which the EC50 turned out to be 967 nM in data set [1], 230 nM in data set [3] and 264 nM in data set [4].
The corresponding values for `COC(=O)c1cccc(COc2c(-c3ccc(OCCOCCn4cc(CCCOc5ccc6c(=O)cc(-c7ccccc7)oc6c5)nn4)cc3)oc3ccccc3c2=O)c1` are 616 nM, 7.2 nM and 24 nM.
On the same counts, the results for `COC(=O)c1cccc(COc2c(-c3ccc(OCCOCCOCCn4cc(CN(Cc5cn(CCOCCOCCOc6ccc(-c7oc8ccccc8c(=O)c7OCc7cccc(C(=O)OC)c7)cc6)nn5)c5ccccc5)nn4)cc3)oc3ccccc3c2=O)c1` are above 1000 nM, 5.8 nM and 3.9 nM.
Regarding `O=c1cc(-c2ccccc2)oc2cc(OCCN(Cc3ccccc3)Cc3cn(CCOCCOc4ccc(-c5cc(=O)c6cc(F)ccc6o5)cc4)nn3)ccc12`, the concentration for a half-maximal effect (EC50) in data set [1] was determined as 285 nM; in data set [3], 48 nM; in data set [4], 54 nM.
On the same counts, the results for `COC(=O)c1cccc(COc2c(-c3ccc(OCCOCCn4cc(CCCOc5ccc(-c6cc(=O)c7ccc(F)cc7o6)cc5)nn4)cc3)oc3ccccc3c2=O)c1` are 481 nM, 9.6 nM and 6.5 nM.
On the same counts, the results for `O=c1cc(-c2ccccc2)oc2cc(OCCN(Cc3ccccc3)Cc3cn(CCOCCOCCOc4ccc(-c5oc6ccccc6c(=O)c5OCc5ccccc5)cc4)nn3)ccc12` are 983 nM, 156 nM and 69 nM.
On the same counts, the results for `OCCOCCn1cc(CN(Cc2ccccc2)Cc2cn(CCOCCO)nn2)nn1` are above 1000 nM, above 1000 nM and above 1000 nM.
Regarding `Cc1ccc2oc(-c3ccc(OCCCCc4cn(CCN(CCOc5ccc6c(=O)cc(-c7ccccc7)oc6c5)Cc5ccccc5)nn4)cc3)cc(=O)c2c1`, the EC50 in data set [1] is above 1000 nM; in data set [3] it was 543 nM; in data set [4], 372 nM.
On the same counts, the results for `O=c1cc(-c2ccccc2)oc2cc(OCCn3cc(CN(Cc4ccccc4)Cc4cn(CCOc5ccc6c(=O)cc(-c7ccccc7)oc6c5)nn4)nn3)ccc12` are above 1000 nM, 243 nM and 485 nM.
On to `COC(=O)c1cccc(COc2c(-c3ccc(OCCOCCOCCn4cc(-c5cccc(-c6cn(CCOCCOCCOc7ccc(-c8oc9ccccc9c(=O)c8OCc8cccc(C(=O)OC)c8)cc7)nn6)c5)nn4)cc3)oc3ccccc3c2=O)c1`, for which the EC50 is above 1000 nM in data set [1], 2.8 nM in data set [3] and 13 nM in data set [4].
As to `Cc1ccc2oc(-c3ccc(OCCCCc4cn(CCOc5ccc6c(=O)cc(-c7ccccc7)oc6c5)nn4)cc3)cc(=O)c2c1`, the EC50 in data set [1] is 204 nM; in data set [3] it was 60 nM; in data set [4], 223 nM.
For the compound `O=c1cc(-c2ccc(OCCOCCn3cc(COCCOc4ccc5c(=O)cc(-c6ccccc6)oc5c4)nn3)cc2)oc2ccccc12`, the EC50 in data set [1] amounted to 960 nM; in data set [3], 303 nM; in data set [4] it was 235 nM.
Regarding `Cc1ccc2oc(-c3ccc(OCCCCc4cn(CCN(CCOc5ccc(-c6cc(=O)c7ccccc7o6)cc5)Cc5ccccc5)nn4)cc3)cc(=O)c2c1`, the EC50 in data set [1] was 679 nM; in data set [3], 70 nM; in data set [4], 39 nM.
